Assay results taken from article PMC9616412, “Nebulized fusion inhibitory peptide protects cynomolgus macaques from measles virus infection” (Nature Communications, 2022).

Details: 74 MBq in 3 ml NaCl 0.9%, mesh nebulizer; Mean +/- SD of four experiments
Method: Following European recommendations, 2 five-year-old healthy female cynomolgus macaques, 3–4 kg, were housed under conventional conditions in the animal facility. […] Animals were acclimatized to laboratory conditions and trained to breathe an aerosol with a facemask spontaneously. Aerosol generated from 3 ml of 0.9% NaCl mixed with 74 MBq of DTPA radiolabeled with technetium 99 m (^99mTc-DTPA) was administered through a facemask connected to the prototype mesh nebulizers, as used in MeV infection experiments (Fig. 2a). Deposition of aerosol was extrapolated based on the ^99mTc-DTPA signal measured at the end of the nebulization using a gamma camera (Orbiter 75 Ecam, Siemens healthcare, Erlangen, Germany)[69]. The nebulizer charge was measured by counting the radioactivity in the syringe (that contained ^99mTc-DTPA) before and after loading the nebulizers. Immediately after aerosol delivery, the animals were imaged using the gamma camera. The post-anterior static scintigraphy acquisition was performed for 120 s. The amount of ^99mTc-DTPA deposited into airways and stomach and remaining in the nebulizer was determined from the digitalized images taking into account the tissue attenuation coefficients, previously determined by perfusion scintigraphy (intravenous injection of ^99mTc-macroagregates of albumin). The organ body outline was specified using a specific Region Of Interest (ROI), and the lungs were delineated using the perfusion scan ROI. The aerosol dose delivered to different organs of NHPs is reported as a percentage of the nominal dose placed in the nebulizer for that given experiment, taking into account the decay of technetium for all measurements.

## O=C([O-])CN(CCN(CC(=O)[O-])CC(=O)[O-])CCN(CC(=O)[O-])CC(=O)[O-].[99Tc+4] [99mTC-DTPA, DTPA radiolabeled with technetium 99 m]
  Deposition in macaque, Esophagus / trachea: 3.4 +/- 4.2%
  Deposition in macaque, Lungs: 11.4 +/- 3.1%
  Deposition in macaque, Stomach: 11.9 +/-9.2%
  Deposition in macaque, Upper respiratory Tract: 29.5 +/- 11.9%
